The values that follow are results of earlier work, collected in patent US20100087475A1, “PHARMACEUTICAL COMPOUNDS” (Biovali Laboratories International (Barbados) S.R.L., priority 2008, published 2010).

The target of this data set is VMAT2 (Homo sapiens, UniProt Q05940). The conditions noted are these: Erickson et al. (1996); cited from earlier work.
VMAT2, sequence (Q05940 whole entry): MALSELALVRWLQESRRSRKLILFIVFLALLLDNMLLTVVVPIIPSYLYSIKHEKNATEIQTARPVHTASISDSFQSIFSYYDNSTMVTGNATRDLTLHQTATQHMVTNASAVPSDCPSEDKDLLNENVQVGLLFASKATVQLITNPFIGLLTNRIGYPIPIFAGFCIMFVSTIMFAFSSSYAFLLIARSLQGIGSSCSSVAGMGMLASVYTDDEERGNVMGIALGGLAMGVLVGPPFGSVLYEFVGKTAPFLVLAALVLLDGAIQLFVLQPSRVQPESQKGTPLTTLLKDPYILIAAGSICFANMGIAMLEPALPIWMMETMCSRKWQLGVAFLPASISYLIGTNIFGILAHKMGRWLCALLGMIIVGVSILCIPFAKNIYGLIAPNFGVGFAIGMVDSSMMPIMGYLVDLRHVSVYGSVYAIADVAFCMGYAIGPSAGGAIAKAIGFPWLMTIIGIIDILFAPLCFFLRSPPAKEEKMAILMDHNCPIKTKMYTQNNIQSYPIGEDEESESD

As for `COc1cc2c(cc1OC)C1CC(=O)C(CC(C)C)CN1CC2` (stereo not shown) [tetrabenazine, 1,3,4,6,7,11b-hexahydro-9,10-dimethoxy-3-(2-methylpropyl)-2H-benzo(a)quinolizin-2-one], the “affinity for VMAT2 in comparison to VMAT1” value is on record as no less than 200 fold.
